Active and inactive are the calls of the source.
Tests used:
[1] = biological target: Oxysterols receptor LXR-beta (Homo sapiens, UniProt P55055); type: functional, cell-based;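 note: Cell-based luminescence dose-response assay of agonist activity at LXR, run as a confirmatory counterscreen to a daf-12 agonist screen; HEK293 cells with Gal4-LXR fusion and GAL4-driven luciferase reporter; agonist potency from rising luciferase signal of a Gal4-LXR reporter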
Transthyretin = Transthyretin (Homo sapiens, UniProt P02766); experiment: Luminescence-based cell-based high throughput dose response assay to identify activators of Transthyretin (TTR) transcription.; type: functional
[2] = Vero cell cytotoxicity, dose response, cytotoxicity control for Vif-APOBEC3G degradation inhibitor project, Vero cells (AID 1117358); type: functional; conditions: Human immunodeficiency virus 1, Vero
[3] = biological target: T1, RNA-binding protein pos-1 (Caenorhabditis elegans, UniProt G5EF15); experiment: inhibitors of POS-1/mex-3 RNA binding, dose response, biochemical, fluorescence polarization (AID 1964);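 note: purified POS-1 fused to maltose binding protein made in E. coli; potency of compounds blocking POS-1 binding to fluorescent RNA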
T1 sequence (G5EF15 whole entry): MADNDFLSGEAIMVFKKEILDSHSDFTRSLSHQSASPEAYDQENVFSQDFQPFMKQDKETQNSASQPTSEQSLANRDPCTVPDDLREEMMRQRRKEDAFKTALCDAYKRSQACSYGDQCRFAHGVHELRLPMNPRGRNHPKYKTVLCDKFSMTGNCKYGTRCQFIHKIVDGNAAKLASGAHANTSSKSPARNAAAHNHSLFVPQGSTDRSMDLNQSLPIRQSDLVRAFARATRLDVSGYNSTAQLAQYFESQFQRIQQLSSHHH

[4] = biological target: T2, Zinc finger protein mex-5 (Caenorhabditis elegans, UniProt Q9XUB2); experiment: MEX-5/TCR-2 RNA interaction inhibitors, dose response, biochemical, C. elegans, fluorescence polarization (AID 1960)
T2 sequence (Q9XUB2 whole entry): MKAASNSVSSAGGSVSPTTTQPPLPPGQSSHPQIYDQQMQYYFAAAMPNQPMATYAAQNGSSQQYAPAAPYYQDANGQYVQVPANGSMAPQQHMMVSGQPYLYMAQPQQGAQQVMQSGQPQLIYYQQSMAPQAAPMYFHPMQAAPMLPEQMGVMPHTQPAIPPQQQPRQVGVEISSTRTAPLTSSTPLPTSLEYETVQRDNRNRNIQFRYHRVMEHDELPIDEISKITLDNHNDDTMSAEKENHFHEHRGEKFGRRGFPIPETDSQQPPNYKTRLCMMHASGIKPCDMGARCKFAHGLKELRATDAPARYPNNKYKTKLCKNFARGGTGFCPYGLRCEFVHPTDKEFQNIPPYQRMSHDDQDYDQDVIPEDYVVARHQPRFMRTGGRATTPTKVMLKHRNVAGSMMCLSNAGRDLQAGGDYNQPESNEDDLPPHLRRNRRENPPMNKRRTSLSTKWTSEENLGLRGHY

[5] = biological target: Bifunctional protein GlmU (Mycobacterium tuberculosis, UniProt P9WMN3); experiment: Inhibitors of Mycobacterial Glucosamine-1-phosphate acetyl transferase (GlmU). Secondary screen.; parameters: species or system Mycobacterium tuberculosis H37Rv
[6] = biological target: Induced myeloid leukemia cell differentiation protein Mcl-1 (Homo sapiens, UniProt Q07820); type: functional
Vero = Vero cell cytotoxicity, cytotoxicity control for flavivirus capping enzyme inhibitors (AID 588742); type: functional; conditions: Chlorocebus sabaeus
Genome polyprotein = Genome polyprotein (dengue virus type 2, UniProt P29990); experiment: Dengue-2 NS5 methyltransferase inhibitors, primary screen, biochemical, confirmation dose response (AID 588689); type: functional
Caspase-6 = biological target: T3, Caspase-6 (Homo sapiens, UniProt P55212); experiment: human caspase-6 inhibitors, dose response, biochemical, VEID-R110 fluorescence, cherry-pick (AID 720632)
T3 sequence (P55212 whole entry): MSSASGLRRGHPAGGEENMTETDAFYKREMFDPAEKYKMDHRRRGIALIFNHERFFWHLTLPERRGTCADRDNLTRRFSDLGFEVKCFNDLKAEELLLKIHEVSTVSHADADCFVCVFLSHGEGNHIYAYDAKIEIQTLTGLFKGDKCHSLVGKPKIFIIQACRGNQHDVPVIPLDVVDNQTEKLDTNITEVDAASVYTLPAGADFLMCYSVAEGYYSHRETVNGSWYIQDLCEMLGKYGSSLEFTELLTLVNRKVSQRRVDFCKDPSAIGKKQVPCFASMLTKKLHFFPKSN

[7] = biological target: E3 ubiquitin-protein ligase UHRF1 (Homo sapiens, UniProt Q96T88); experiment: Counterscreen for inhibitors of 5-meCpG-binding domain protein 2 (MBD2): TRFRET-based biochemical high throughput dose response assay to identify inhibitors of binding of ubiquitin-like with PHD and ring finger domains 1 (UHRF1) to methylated oligonucleotide.
[8] = biological target: DNA (cytosine-5)-methyltransferase 1 (Homo sapiens, UniProt P26358); experiment: DNMT1 methyltransferase inhibitors, confirmation, biochemical, fluorescent molecular beacon (AID 602386); type: functional
[9] = biological target: Protein disulfide-isomerase (Homo sapiens, UniProt P07237); experiment: PDI inhibitors, insulin aggregation turbidity, dose response, biochemical, absorbance, cherry-picked samples (AID 602350); type: functional
ELAV-like protein 1 = ELAV-like protein 1 (Homo sapiens, UniProt Q15717); experiment: Identify HuR specific inhibitors.; type: functional
[10] = biological target: E3 ubiquitin-protein ligase Mdm2 (Homo sapiens, UniProt Q00987); experiment: enhancers of MDM2-luciferase reporter signal, concentration-effect titration, project on inhibitors of MDM2 ubiquitin ligase, cellular assay, luminescent readout, 384-well plate format (AID 1394); type: functional;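 note: MDM2 E3 inhibitors raise luminescence so EC50 is for signal enhancement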
[11] = A375 melanoma cell viability loss, dose response, counter-screen for MITF inhibitor project, CellTiter-Glo luminescence, dry powder, set 4 (AID 624364); type: functional, cell-based; conditions: A-375;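 note: A375 melanoma cells are MITF independent so this is a counter screen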
[12] = A375 melanoma cell cytotoxicity, dose response, counter-screen for MITF inhibitor project, CellTiter-Glo luminescence, dry powder, set 2 (AID 624489); type: functional, cell-based; conditions: A-375;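 note: actives are compounds lowering A375 viability meaning general cytotoxicity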

Sequence of E3 ubiquitin-protein ligase UHRF1 (Q96T88 whole entry, the tested form may be a part): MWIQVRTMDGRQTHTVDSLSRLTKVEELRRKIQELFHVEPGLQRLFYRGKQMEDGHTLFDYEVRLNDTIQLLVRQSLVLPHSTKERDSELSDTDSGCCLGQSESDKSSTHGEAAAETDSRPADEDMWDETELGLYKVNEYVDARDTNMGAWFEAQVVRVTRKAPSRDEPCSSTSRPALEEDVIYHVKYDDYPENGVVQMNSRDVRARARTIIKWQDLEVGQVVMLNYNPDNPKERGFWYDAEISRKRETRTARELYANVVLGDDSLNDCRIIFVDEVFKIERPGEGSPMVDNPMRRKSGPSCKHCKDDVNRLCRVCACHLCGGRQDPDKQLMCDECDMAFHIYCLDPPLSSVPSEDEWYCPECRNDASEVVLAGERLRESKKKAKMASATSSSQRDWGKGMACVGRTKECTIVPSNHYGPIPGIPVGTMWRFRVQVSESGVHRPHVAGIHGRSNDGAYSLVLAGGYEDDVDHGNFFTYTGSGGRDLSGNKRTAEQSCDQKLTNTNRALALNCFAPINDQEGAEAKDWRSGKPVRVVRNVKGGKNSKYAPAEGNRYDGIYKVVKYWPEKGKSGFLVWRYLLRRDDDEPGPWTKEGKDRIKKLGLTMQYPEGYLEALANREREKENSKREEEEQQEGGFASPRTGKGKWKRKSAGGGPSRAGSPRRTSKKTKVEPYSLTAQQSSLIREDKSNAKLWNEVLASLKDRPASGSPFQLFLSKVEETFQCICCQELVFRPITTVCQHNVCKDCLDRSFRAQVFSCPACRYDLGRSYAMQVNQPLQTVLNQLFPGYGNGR
Sequence of Induced myeloid leukemia cell differentiation protein Mcl-1 (Q07820 whole entry): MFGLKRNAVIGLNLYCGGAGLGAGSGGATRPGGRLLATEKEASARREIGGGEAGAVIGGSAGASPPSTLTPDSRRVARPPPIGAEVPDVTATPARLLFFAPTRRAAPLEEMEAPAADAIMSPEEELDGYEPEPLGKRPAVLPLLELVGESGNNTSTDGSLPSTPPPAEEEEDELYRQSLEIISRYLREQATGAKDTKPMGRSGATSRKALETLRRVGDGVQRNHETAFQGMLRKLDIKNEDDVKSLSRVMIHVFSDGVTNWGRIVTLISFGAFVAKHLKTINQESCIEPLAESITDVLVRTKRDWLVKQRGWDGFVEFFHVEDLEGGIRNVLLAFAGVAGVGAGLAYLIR
Sequence of Genome polyprotein (P29990 2492-3391 limits assumed): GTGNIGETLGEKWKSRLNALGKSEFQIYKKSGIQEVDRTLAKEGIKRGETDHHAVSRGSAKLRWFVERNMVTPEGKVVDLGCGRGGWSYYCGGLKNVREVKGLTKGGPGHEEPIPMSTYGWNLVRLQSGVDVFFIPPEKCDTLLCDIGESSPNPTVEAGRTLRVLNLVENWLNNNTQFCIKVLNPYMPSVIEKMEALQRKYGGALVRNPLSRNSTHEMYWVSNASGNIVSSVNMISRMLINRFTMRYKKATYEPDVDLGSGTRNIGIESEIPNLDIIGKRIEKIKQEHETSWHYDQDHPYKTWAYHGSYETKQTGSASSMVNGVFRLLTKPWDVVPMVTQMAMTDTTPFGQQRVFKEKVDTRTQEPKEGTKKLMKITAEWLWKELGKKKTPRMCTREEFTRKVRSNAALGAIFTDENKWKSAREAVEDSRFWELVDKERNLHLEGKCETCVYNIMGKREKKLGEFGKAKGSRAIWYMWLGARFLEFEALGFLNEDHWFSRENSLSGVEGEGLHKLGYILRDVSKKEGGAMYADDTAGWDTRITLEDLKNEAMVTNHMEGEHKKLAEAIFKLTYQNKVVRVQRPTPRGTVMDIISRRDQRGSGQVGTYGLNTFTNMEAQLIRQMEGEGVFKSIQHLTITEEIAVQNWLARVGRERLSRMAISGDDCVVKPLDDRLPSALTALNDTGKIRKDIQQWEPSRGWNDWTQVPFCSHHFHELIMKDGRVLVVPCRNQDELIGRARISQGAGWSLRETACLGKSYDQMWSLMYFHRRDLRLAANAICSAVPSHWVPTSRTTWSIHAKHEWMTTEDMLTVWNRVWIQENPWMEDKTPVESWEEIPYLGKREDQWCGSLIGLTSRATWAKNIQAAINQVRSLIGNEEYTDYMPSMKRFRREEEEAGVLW
Sequence of ELAV-like protein 1 (Q15717 whole entry): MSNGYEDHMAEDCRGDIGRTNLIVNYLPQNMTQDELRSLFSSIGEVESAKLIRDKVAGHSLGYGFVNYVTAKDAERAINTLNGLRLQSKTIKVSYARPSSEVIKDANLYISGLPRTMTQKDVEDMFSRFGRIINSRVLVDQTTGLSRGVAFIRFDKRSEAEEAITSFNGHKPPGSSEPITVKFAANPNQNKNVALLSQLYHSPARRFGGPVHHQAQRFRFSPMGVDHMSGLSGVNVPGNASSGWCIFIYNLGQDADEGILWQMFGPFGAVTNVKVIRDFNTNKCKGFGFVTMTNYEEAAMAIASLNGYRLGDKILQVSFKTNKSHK
Sequence of Bifunctional protein GlmU (P9WMN3 whole entry): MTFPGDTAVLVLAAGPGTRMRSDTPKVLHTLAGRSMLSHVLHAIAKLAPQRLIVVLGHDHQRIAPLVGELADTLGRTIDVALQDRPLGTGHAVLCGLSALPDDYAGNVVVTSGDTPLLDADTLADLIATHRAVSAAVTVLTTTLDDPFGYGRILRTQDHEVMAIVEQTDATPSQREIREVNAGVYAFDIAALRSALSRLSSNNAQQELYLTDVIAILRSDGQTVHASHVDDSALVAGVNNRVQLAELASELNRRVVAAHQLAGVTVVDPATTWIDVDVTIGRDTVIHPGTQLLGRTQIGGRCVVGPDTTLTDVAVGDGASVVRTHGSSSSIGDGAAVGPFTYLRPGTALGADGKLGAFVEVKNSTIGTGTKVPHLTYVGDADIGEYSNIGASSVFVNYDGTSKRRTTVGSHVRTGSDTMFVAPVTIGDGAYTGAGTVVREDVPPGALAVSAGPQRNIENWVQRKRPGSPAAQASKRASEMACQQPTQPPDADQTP
Sequence of E3 ubiquitin-protein ligase Mdm2 (Q00987 whole entry): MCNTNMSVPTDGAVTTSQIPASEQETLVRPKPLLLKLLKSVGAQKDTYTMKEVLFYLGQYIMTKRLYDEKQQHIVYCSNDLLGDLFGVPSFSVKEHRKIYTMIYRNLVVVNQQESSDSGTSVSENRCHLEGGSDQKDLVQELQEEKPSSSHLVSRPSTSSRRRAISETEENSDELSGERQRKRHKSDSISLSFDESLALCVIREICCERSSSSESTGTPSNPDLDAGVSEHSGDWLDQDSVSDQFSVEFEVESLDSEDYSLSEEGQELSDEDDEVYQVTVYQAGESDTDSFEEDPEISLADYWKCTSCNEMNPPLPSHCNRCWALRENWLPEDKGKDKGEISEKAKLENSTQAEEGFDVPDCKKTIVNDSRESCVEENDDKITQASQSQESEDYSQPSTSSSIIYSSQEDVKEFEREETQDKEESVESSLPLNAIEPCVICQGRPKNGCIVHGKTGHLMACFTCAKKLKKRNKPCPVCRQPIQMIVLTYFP
Sequence of Oxysterols receptor LXR-beta (P55055 whole entry, the tested form may be a part): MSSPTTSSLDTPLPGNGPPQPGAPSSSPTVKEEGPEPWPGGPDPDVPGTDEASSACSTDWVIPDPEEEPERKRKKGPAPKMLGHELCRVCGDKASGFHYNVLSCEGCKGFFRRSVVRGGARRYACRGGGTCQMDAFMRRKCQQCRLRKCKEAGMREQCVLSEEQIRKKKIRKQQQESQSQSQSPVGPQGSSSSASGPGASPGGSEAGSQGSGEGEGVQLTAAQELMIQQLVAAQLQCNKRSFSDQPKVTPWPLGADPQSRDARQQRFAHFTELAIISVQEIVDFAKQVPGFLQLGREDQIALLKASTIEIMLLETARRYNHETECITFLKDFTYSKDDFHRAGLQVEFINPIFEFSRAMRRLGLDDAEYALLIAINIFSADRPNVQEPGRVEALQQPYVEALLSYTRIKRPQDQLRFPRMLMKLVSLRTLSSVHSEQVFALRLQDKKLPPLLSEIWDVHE
Sequence of Protein disulfide-isomerase (P07237 whole entry): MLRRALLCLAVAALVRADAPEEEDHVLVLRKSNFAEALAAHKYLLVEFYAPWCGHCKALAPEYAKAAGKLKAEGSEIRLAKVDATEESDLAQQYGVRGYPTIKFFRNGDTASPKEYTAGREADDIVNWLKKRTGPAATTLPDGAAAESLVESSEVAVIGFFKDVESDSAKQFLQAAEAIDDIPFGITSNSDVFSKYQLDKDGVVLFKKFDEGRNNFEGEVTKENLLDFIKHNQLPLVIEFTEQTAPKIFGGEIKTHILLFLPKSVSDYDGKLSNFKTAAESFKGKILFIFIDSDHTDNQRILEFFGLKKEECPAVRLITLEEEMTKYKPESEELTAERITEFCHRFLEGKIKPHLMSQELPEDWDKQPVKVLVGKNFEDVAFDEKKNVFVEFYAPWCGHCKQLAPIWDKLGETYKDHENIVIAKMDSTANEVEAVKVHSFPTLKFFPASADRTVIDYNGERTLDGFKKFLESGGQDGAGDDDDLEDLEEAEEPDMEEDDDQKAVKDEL

## O=C1C(/C=N/c2ccccc2)=C(O)c2ccccc21
[1]
  EC50: > 67.5 µM (inactive)
cells
  EC50: > 67.5 µM (inactive)

## Cc1c(NS(=O)(=O)c2ccc(NC3CCCC3)c([N+](=O)[O-])c2)c(=O)n(-c2ccccc2)n1C
Transthyretin
  EC50: > 167 µM (inactive)

## Cn1c(Cn2c(=O)sc3ccccc32)nnc1SCC(=O)NCc1ccc(F)cc1
[2]
  CC50: > 40 µM (active)

## O=c1ccc2[n+]([O-])c3ccc(O)cc3oc-2c1
[3]
  EC50: > 300 µM (not active)
[4]
  EC50: 37.7 µM (active)
[5]
  IC50: 59.4 µM (active)
[6]
  IC50: 10.1 µM (not active)
Vero
  CC50: > 40 µM (active)
Genome polyprotein
  IC50: 1.61 µM (active)
Caspase-6
  AC50: 0.285 µM (active)

## CC(=O)Nc1sc2c(c1-c1nc3ccccc3s1)CN(C(C)C)C2
[7]
  IC50: > 43.8 µM (inactive)

## COC(=O)CC1OCC=C2CN3CCC45C6=CC(=O)C(=O)C([N+](=O)[O-])=C6NC4C1C2CC35 (stereo not drawn)
[8]
  IC50: 6.06 µM (active)
[9]
  AC50: 8.03 µM (active)
ELAV-like protein 1
  IC50: 69.6 µM (inactive)

## COc1ccc(CCNC(=O)COC(=O)c2cnc(C)cn2)cc1OC
[10]
  EC50: 0.17 µM (not active)

## COc1ccc(C(=O)NC2=C(c3ccccc3)C(=O)c3ccccc3C2=O)cc1
[11]
  AC50: 40.6 µM (active)
[12]
  AC50: 20.9 µM (active)
